From US20040136985A1, “Methods of modifying behavior of CD9-expressing cells” (priority 2002, published 2004)
Entries after “also recorded” stand apart in the source; their conditions may differ. Like-named read-outs stand apart in the source and are kept apart here. Where no end group is shown, it is not given here.

Tests used:
FN [1] = assay: ELISA for fibronectin binding to immobilized CD9, His6-rCD9 or peptide; parameters: species or system human; conditions: for soluble FN binding to immobilized peptide compared to intact platelet purified CD9: FN 75 μg/ml
Protocol: (§1) All incubation periods for the CD9/FN binding ELISA lasted two hours at RT unless otherwise indicated. Immulon I (Dynatech) microtiter plate wells were coated with CD9 (2 μg/ml), His6-rCD9 (2 μg/ml), BSA (10 μg/ml), or peptide (10 μM) in Buffer A. After one wash with Buffer B, plates were blocked with Blocking Buffer 1.1% BSA was included in steps from ligand overlay to addition of mAb conjugate to minimize non-specific binding. Titrations of human plasma FN in Buffer B were added to plates either alone, or in the case of competition ELISAs, with 0-160 μM synthetic peptide. Plates were washed three times with ELISA Buffer B, followed by incubation with a 1/1000 dilution of rabbit anti-FN antibody. After two washes with Buffer B and one wash with Buffer C, plates were incubated with 1/500 antirabbit IgG alkaline phosphatase in Buffer C for one hour at RT. After four washes with Buffer C, 1 mg/mlp-nitrophenyl phosphate substrate was added and the absorbance at 405 nm was recorded.

FN [2] = target: FN (Homo sapiens, UniProt P02751); assay: Surface plasmon resonance biosensor analysis of FN captured by anti-FN mAbs; format: binding
CHO A6 cells = assay: Basic adhesion assay of CHO A6 cells on FN; format: cell-based; conditions: 0.5 μM peptide, 3 hours
Protocol: 24-well culture plate wells were coated with human plasma FN (10 μg/mL FN in PBS for 3 hours at 37° C.) and blocked with PBS, 3% bovine serum albumin (BSA) for 1 hour at 37° C. Mock- and CD9-CHO cells were harvested as described previously. After a 30-minute rest period at 37° C., 10^5 cells/well were seeded in FN-coated 24-well plates and incubated for 3 hours at 37° C. For some experiments, cells were incubated in the presence of 0.5 μM of peptides corresponding to amino acid sequences of CD9 EC2. Wells were washed 4 times with adhesion media, stained with modified Wright Giemsa, and adherent cells were counted in five randomly selected high-power fields of view per well using an inverted phase contrast microscope, Olympus IMT-2 (Olympus, Lake Success, N.Y.). All assays were run in triplicate, and the cell counts were reported as the number of adherent cells/mm^2 of well surface area. The mean number of adherent cells/mm^2±SE of 3 independent assays were reported (n=45).

[3] = system: mAb7 binding to CD9 expressed on CHO A6 cells; assay: Flow cytometry: peptide blocking of mAb7 binding to CD9 on CHO A6 cells; parameters: species or system human; conditions: 100 μg peptide with 1 μg mAb7
Protocol: 100 μg of peptide 5a, 5, 5b, or 6a was incubated with 1 μg mAb7 for 30 minutes at room temperature. CD9 CHO cells (clone A6) were harvested, washed twice with PBS, and resuspended in labeling media (2.5×10^5 cells/mL); 4 μL mAb7-peptide solution was added to 2.5×10^5 cells and incubated for 1 hour at 4° C. MOPC2, and mAb7 alone were used as negative and positive controls, respectively. Cells were washed with PBS, resuspended in labeling media, and bound mAb7 was detected with a species-specific FITC-conjugated second antibody, followed by flow cytometry as described above.

human coronary SMCs [4] = assay: Verification that hydroxyurea prevents SMC proliferation (thymidine incorporation); format: cell-based; conditions: 5 mM hydroxyurea
Protocol: (§2) Cell migration was measured via a monolayer-wounding assay, as described by Brown et al. (Circ Res. 84:655-667 (1999), which is hereby incorporated by reference in its entirety). Briefly, 100% confluent cells were treated with serum-free medium containing hydroxyurea (5 mM)(DMEM supplemented with 100 U/mL penicillin, 100 μg/mL streptomycin and 5 mM hydroxyurea) for 24 h before the start of experiments. Hydroxyurea was used to prevent cell proliferation and block the possible effect of CD9 on SMCs proliferation. The capacity of hydroxyurea to prevent proliferation was verified by showing that it inhibited thymidine incorporation by >99%. After incubation with hydroxyurea, cells were rinsed with DMEM (serum free), and a ≈1 mm wide scratch was made with a sterile 20 ul tip with the help of a ruler. After that, the cells were incubated in the DMEM medium. […] Plates were rinsed twice with PBS, and analyzed via computerized image analysis system (scion Image CMS-800). Cell migration was expressed as the distance migrated in the 24 hours (Chang et al., Circ. Res. 91(5):390-397 (2002), which is hereby incorporated by reference in its entirety). […]

FN/CD9 interaction = assay: ELISA modified for effects of metal salts on the FN/CD9 interaction; format: binding, human; conditions: 0-4.5 mM metal salt
Protocol: The standard ELISA assay format was modified to evaluate the effects of divalent and monovalent metal salts on the FN/CD9 interaction. The ELISA buffers contained 0.5 mM EGTA and metal salt was excluded from antigen plating and primary wash step. Antigen was plated in Buffer D. The plates were washed once with Buffer E and then blocked with Blocking Buffer 2. Subsequent steps up to and including the second wash after the FN overlay were done in Buffer F, which contained 0-4.5 mM metal salt. After the FN overlay, plates were washed once with Buffer F (+/−metal salt), then twice with Buffer G. The subsequent incubations and washes were performed with Buffer G.

human coronary SMCs [5] = assay: SMC migration, monolayer-wounding assay; format: cell-based; conditions: 2% serum, 24 h
Protocol: as §2

CD9-CHO-B2 cells = assay: Adhesion of CD9-CHO-B2 cells (lacking integrin α5β1) to FN, peptide inhibition; format: cell-based; conditions: peptide 0.5 μM
Protocol: CHO cell adhesion assays were done as described by Cook et al. (Exp. Cell. Res. 251:356-371 (1999), which is hereby incorporated by reference in its entirety). Briefly, 24-well cell culture plates (Coming, Acton, Mass.) were coated with FN (10 μg/ml) and blocked with PBS, 3% BSA. CHO cells were cell synchronized, harvested, and resuspended at 1×10^5 cell/ml in adhesion media (RPMI, 1% BSA). For peptide inhibition studies, peptides were added to CHO cell suspension to give a final concentration of 0.5 μM and cells were incubated at 37° C. for 30 minutes. 1 ml CHO cell suspension was added to each well and CHO cells were allowed to adhere for either 3 or 6 hours, then adherent cells were stained with Wright Giemsa and counted.

FN-CD9 binding = assay: Competition ELISA: effect of peptides on FN binding to immobilized CD9; parameters: species or system human
Protocol: as §1

CD9-CHO cells = format: cell-based; conditions: FN coated inserts blocked with peptide (0.5 μM)
Protocol: The motility assays were performed using two methodologies. The first method was modified from Bauer et al. (J. Cell. Biol. 116:477-487 (1992), which is hereby incorporated by reference in its entirety). Cell cycle synchronized CHO cells were seeded into tissue culture plates, grown to approximately 50% confluency, and harvested. The cells were washed twice with Media A, adjusted to 4×10^5/ml, allowed to rest at 37° C. for 30 min in Media B, then transferred into modified Boyden chambers. The upper and lower chambers were separated by a polycarbonate filter, with 8 μm pores, pre-coated on the underside only with 10 μg/ml FN. After 3 or 6 hours, cells on the FN-coated side of the filters were fixed, stained with hematoxylin, and mounted onto slides. The total numbers of adherent cells from five high-powered fields (HPF) per filter were counted per time point per assay. The second method for assessing the motility of CD9-transfected CHO cells utilized 10 mm polycarbonate tissue culture inserts with 8 μm pores (Nunc, Rochester, N.Y.). Tissue culture inserts were coated on the underside with FN as described above for Boyden Chambers. […] CHO cells adhered to the FN-coated underside of tissue culture inserts were stained with Wrights Giemsa and the number of adherent cells in five random high power fields were counted per time point per assay. […]

[6] = FN concentration, 2.5 mM Ca2+, read-out: half maximal binding with FN

Sequence of FN (Homo sapiens, UniProt P02751) (P02751 32-2477): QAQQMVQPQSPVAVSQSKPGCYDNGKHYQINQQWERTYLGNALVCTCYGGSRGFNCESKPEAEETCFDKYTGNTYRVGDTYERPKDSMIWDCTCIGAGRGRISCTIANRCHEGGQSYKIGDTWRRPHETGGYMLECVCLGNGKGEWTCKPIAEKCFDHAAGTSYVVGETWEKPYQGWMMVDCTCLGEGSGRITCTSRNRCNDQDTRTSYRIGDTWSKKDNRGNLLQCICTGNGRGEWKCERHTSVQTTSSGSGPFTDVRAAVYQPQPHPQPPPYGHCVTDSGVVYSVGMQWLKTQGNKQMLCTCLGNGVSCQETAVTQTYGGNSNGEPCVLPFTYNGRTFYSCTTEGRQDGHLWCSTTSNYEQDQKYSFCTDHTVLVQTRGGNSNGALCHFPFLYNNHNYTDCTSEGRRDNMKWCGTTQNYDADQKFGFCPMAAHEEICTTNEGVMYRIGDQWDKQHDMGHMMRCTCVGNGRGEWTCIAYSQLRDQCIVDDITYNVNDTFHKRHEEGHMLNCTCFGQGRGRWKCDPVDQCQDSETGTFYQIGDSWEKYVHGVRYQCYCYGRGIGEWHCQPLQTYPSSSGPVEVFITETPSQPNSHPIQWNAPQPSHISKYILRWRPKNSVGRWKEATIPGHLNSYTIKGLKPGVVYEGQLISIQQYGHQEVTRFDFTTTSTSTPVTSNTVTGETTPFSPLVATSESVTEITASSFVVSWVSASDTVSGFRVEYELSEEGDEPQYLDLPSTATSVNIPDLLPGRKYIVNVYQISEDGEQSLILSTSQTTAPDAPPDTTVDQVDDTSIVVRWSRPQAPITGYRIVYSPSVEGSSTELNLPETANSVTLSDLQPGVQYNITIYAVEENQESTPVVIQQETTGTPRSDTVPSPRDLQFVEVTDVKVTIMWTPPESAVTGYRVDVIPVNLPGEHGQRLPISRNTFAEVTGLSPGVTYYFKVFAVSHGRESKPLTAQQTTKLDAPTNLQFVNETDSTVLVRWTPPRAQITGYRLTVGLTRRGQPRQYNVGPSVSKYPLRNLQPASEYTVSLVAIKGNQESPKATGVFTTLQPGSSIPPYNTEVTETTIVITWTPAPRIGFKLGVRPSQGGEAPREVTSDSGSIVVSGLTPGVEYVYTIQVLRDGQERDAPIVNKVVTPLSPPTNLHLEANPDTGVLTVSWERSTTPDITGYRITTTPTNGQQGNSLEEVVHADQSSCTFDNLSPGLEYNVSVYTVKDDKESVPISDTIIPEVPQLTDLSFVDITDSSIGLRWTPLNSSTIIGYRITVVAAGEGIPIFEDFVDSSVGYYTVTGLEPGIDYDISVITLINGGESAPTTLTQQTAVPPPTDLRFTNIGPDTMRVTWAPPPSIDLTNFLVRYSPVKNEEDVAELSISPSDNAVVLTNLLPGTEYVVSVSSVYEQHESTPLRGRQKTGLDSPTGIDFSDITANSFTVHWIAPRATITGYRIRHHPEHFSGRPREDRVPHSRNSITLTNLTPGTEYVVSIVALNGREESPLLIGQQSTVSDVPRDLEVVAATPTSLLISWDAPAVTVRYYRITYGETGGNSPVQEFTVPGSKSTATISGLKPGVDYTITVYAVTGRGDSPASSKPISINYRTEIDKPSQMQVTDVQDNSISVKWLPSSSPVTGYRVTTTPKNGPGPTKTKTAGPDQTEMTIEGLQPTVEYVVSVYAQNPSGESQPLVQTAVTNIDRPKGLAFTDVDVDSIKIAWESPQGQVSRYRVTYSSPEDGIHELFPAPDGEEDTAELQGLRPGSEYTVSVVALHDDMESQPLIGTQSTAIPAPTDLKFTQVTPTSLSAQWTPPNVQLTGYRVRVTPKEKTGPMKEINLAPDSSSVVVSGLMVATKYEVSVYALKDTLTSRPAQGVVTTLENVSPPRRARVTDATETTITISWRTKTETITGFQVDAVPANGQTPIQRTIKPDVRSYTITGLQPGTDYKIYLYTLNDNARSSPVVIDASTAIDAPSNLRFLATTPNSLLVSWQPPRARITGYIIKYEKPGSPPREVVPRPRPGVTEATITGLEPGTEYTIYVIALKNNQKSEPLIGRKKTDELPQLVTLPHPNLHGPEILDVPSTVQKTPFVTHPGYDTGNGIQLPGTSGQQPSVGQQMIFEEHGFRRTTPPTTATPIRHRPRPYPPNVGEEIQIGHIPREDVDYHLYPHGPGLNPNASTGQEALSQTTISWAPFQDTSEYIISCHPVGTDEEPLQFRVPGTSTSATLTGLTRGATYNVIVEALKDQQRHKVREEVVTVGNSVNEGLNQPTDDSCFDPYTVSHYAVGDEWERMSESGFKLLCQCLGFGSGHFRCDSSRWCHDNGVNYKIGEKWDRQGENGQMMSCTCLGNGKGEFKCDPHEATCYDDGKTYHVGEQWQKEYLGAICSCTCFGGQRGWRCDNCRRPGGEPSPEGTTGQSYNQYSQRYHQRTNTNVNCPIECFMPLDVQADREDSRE

In the case of “CD9: purified platelet CD9, 24 kDa integral membrane glycoprotein (SEQ ID NO: 1)”, the “half-maximal binding of soluble FN to immobilized CD9” value (FN [1]; 2.5 mM CaCl2, FN concentration) is reported as 35.6 µg/mL, the EC50 (FN [1]; 2.5 mM CaCl2, FN concentration, read-out: half-maximal binding of soluble FN to immobilized CD9) is reported as 81 nM and the EC50 (FN [1]; [6]) is reported as 81 nM. For the same molecule, the Kd (FN [1]; platelet-derived or recombinant CD9, read-out: affinity of FN-CD9 interaction) was 80 nM and the “association between captured FN and purified CD9” value (FN [2]) was “specific association”.
For “KDEPQRETLKAIHYALNCCGLAGGVEQFISDICPKKDV [peptide 5b]”, the “effect on adhesive phenotype of CHO A6 cells on FN” value (shortened to “effect on adhesive phenotype”) (CHO A6 cells) was “equivalent to that of CHO MOCK cells; also recorded: reversed the adhesive phenotype; also recorded: reversed the inhibitory influence of CD9” and the “blocking of mAb7 binding to cell surface CD9” value (shortened to “blocking of mAb7 binding”) [3] was “blocked mAb7 binding to soluble CD9 and to CD9 on intact cells”.
NC(=O)NO [hydroxyurea] was tested, and the inhibition at 5000 µM (human coronary SMCs [4]) was over 99%.
In the case of YKDTYNKLKTKDEPQRETLKAI [peptide 5], the “soluble FN binding to immobilized peptide compared to intact platelet purified CD9” value (FN [1]) is reported as 19%, the “effect on adhesive phenotype” value (CHO A6 cells) is reported as “no effect” and the “blocking of mAb7 binding” value [3] is reported as “neither peptide 5a nor 5 blocked”.
“His6-rCD9: bacterially expressed histidine tagged recombinant CD9” was tested, and the EC50 (FN [1]; [6]) was 120 nM and the “binding to FN lower than for purified CD9 (absolute ELISA values)” value (FN [1]; versus purified platelet CD9) was 40%.
With PKKDVLETFTVKSCPDAI [peptide 6a] the “effect on adhesive phenotype” value (CHO A6 cells) was “equivalent to that of CHO MOCK cells; also recorded: reversed the inhibitory influence of CD9” and the “blocking of mAb7 binding” value [3] was “blocked mAb7 binding”.
In the case of [Ca+2].[Cl-].[Cl-] [CaCl2], the “effect of cation on CD9/FN interaction” value (FN/CD9 interaction) is reported as “stimulated”.
PKKDVLETFTVKSCPDAIKEVFDNK [peptide 6] was tested, and the “effect on SMC migration” value (human coronary SMCs [5]) was “dose dependent inhibitory effect”, the “maximal inhibitory effect on serum-induced migration” value (human coronary SMCs [5]; at 40 μM) was about 65% and the “direct binding of FN” value (FN [1]) was “binds directly”. The “soluble FN binding to immobilized peptide compared to intact platelet purified CD9” value (FN [1]) was 65%, the “effect on CD9-CHO-B2 cell adhesion to FN” value (CD9-CHO-B2 cells) was “able to block” and the “effect on CD9-CHO-B2 cell adhesion to FN” value (CD9-CHO-B2 cells; listed as Peptide 6) was “inhibited the adhesion level of CD9-CHO-B2 cells on FN to that seen with Mock-CHO-B2 cells”. The “effect on adhesive phenotype” value (CHO A6 cells) was “reversed the adhesive phenotype”, the “blocking of mAb7 binding” value [3] was “blocked mAb7 binding to soluble CD9 and to CD9 on intact cells” and the “inhibition of FN binding to CD9” value (FN-CD9 binding; peptide 0-160 μM) was “significantly inhibited; also recorded: competitively inhibited binding of FN to purified CD9 in a dose-dependent fashion; also recorded: partially inhibited”. The “peptide concentration at maximal inhibition of FN binding to CD9” value (FN-CD9 binding; titration 0-160 μM) was 60 µM and the “effect on CD9-mediated CHO cell motility to FN” value (CD9-CHO cells) was “competitively inhibited”.
With “KEFDFKAPSVCKVEDIDTKTL [peptide 6S, reference compound]” the “effect on CD9-CHO-B2 cell adhesion to FN” value (CD9-CHO-B2 cells) was “no significant effect” and the “effect on CD9-mediated CHO cell motility to FN” value (CD9-CHO cells) was “lack of inhibition”.
YSHKDEVIKEVQEFYKDTYNKLKT [peptide 5a] was tested, and the “blocking of mAb7 binding” value [3] was “neither peptide 5a nor 5 blocked”.
